Source: a melting point compilation (Tetko et al.; mined from patent text by program, amines drawn as free bases though some values may be those of a salt)

SMILES	melting point [°C]
Fc1cccc(COc2ccc(I)cc2)c1	48
C1CCN(ON2CCCC2)C1	99
O=S(=O)(N[C@H](CO)[C@@H](c1ccccc1)C(F)(F)F)c1ccc(Cl)cc1	129 to 131
c1ccc(N(c2ccccc2)c2cccc3cc(-c4nc5ccccc5s4)ccc23)cc1	186 to 187
CNC(=O)c1cccc(-c2ccc(OC(C)C(O)CCc3cccnc3)cc2)c1 (stereo not drawn)	54 to 55
Cc1nc(-c2nc(C)c(-c3ccnc(Nc4ccc(N5CCOCC5)cc4)n3)s2)cs1	262 to 263
CCCCCn1cc(CCCC)n(Cc2ccc(-c3ccccc3-c3nnn[nH]3)nc2)c1=O	162 to 164
CCCCc1nc2c(N)nc3cc(CCc4ccccc4)ccc3c2n1CC(C)C	181 to 182
CCCCCc1cc2c(nc(O)n2CCCNS(C)(=O)=O)c(N)n1	174 to 176
COCc1ccc(C(=O)NC(C#N)n2cccn2)cc1 (stereo not drawn)	155 to 157
COC(=O)CSc1nc(N)c(C=O)nc1Cl	103 to 104
CC#CCCn1ncc2c(OCC)c(C(=O)OCC)c(C)nc21	94 to 95
CN(CCCC(N)=O)Cc1ccc(Cl)cc1	62 to 64
Cc1cccc2c1nc(-c1c(F)cccc1F)n2Cc1cccnc1	131 to 132
CCS(=O)(=O)c1ncc(C(F)(F)F)cn1	98
CCOC(=O)C(CC(=O)O)(Cc1cn(C)c2ccccc12)C(=O)OCC	127 to 130
NC(=O)NC(=S)Nc1ccccc1	176 to 180
COc1nc(N)nc(Cl)c1C1=NCCN1	212
COc1ccc(C(=O)N(C(=O)c2ccc(OC)cc2)c2nc3ccc(N4CCN(C)CC4)cc3c(NCc3ccccc3)c2C#N)cc1	176
O=C(Nc1ccccc1)Nc1ccc(Cc2ccc(NC3=NCCN3)cc2)cc1	167 to 170
Cc1oc(-c2cc3ccccc3o2)nc1COc1ccc(CCCC2OC(=O)NC2=O)cc1 (stereo not drawn)	165 to 166
CN(C)CCc1c[nH]c2ccc(C#CCOCc3ccccc3)cc12	93 to 95
O=C(O)c1ccc(NCCOc2ccccc2)cc1	172 to 175
CCCCCC(O)C1C(=O)NC2(C(O)C3C=CCCC3)C(=O)OC12C (stereo not drawn)	144
Cc1oc(-c2ccccc2)nc1COc1ccc(CCCCCBr)cc1	58 to 59
C/C(=C(\C#N)C(N)=S)N1CCCCCC1	158 to 161
COc1ccc(CSc2nnc(-c3ccc4occc4c3)o2)cc1F	134 to 136

SMILES	melting point [°C]
O=C(CNC(=O)CSC(=O)c1ccccc1)CNC(=O)CSC(=O)c1ccccc1	134 to 140
CCCCCCCCCCCCCCCCOC(=O)Nc1ccc(NC(=O)NS(=O)(=O)c2ccc3ccccc3c2)cc1	183
NC(=O)c1cc(-n2cnn(Cc3ccc(F)cc3)c2=O)n[nH]1	> 270
N=C(N)Nc1nc(CSCCNc2[nH]ccc2[N+](=O)[O-])cs1	196 to 200
CC(=O)c1cccc(Oc2ncccc2OCCCc2ccncc2)c1	117 to 119
OCCC#Cc1ccc2c(-c3ccc(Cl)cc3)nsc2c1	128 to 129
CCNc1ncnc2nc(-c3ccncc3)[nH]c12	308 to 310
COCn1c(C)nc2nc(O)cnc2c1=O	224 to 226
CCOC(=O)C(OCc1ccc(Cl)cc1)(C(F)(F)F)C(F)(F)F	33
Cc1ccc(-c2nnc(N(CCCCOCC(=O)O)C(C)C)nc2-c2ccc(C)cc2)cc1	119 to 121
O=C(N[C@H](Cc1cccc(C(F)(F)F)c1)[C@@H](O)c1ccc(F)cc1)c1ccc(F)c2ccccc12 (racemic)	193 to 194
c1ccc2oc(-c3nc(COc4ccc(CCCn5ccnc5)cc4)co3)cc2c1	122 to 123
CN(C)CCNC(=O)CCn1c(-c2ccc(Cl)cc2)nc2cccnc21	142 to 143
CC1(C)C(=O)Oc2ccc3cc(C#N)c(C(n4cncn4)n4cncn4)cc3c21	240 to 242
C[C@]12CC[C@H]3[C@@H](CCC4=CC(=O)CC[C@@H]43)[C@@H]1CCC21CC(O)CO1 (stereo partly drawn)	149 to 154
CNC(=O)ON=C1SCC(=O)N1CCOC	153 to 155
COc1ccc(CC2SC(=O)NC2=O)cc1C(=O)NCc1ccc([N+](=O)[O-])cc1 (stereo not drawn)	236 to 238
O=C(Nc1nc(-c2ccco2)c(-c2ccc(=O)n(Cc3ccccc3)c2)s1)c1ccncc1	215 to 218
N#CC1CN1C(=O)NC(=O)COc1ccccc1 (stereo not drawn)	134 to 136
N=C(NN=Cc1ccc(OC(F)(F)C(F)F)cc1)NN=Cc1ccc(C(F)(F)F)cc1	132 to 137
CC(CO)n1nnc2cc3c(=O)n(C(C)Cn4ncnn4)nnc3cc2c1=O (stereo not drawn)	153 to 154
Cc1nc2cc(-c3ccc4c(c3)C=C(C(=O)Nc3ccc(CN(C)C5CCOCC5)cc3)CCS4(=O)=O)ccc2o1	236 to 240
CC(=O)c1cc(I)c(O)c(Cl)n1	223 to 224
CCCC(c1ccc(C(=O)c2ccccc2)cc1OCc1ccc(Br)cc1)n1ccnc1 (stereo not drawn)	70 to 72
CC(C)NC1=C(Cl)NC(N)(C(=O)NC#N)C=N1 (stereo not drawn)	232
CCCCCCC(C)(C)c1cc(O)c2c(c1)OC(C)(C)[C@@H]1CC=C(NC(C)=O)C[C@@H]21 (relative stereo)	186 to 188
c1cc(C2CCC(c3ccc(OCC4CO4)cc3)CC2)ccc1OCC1CO1 (stereo not drawn)	154

Continued, values first:

melting point [°C]	SMILES
172 to 174	CC1(C)NC(=O)N(CC(CSc2ccc(-c3ccc(C(F)(F)F)cc3)cc2)N(O)C=O)C1=O (stereo not drawn)
147 to 148	CCc1nc2c(-c3cc4c(cc3C)OCC4)ncnc2n1C(C1CC1)C1CC1
98 to 100	COC(=O)c1ccc2c(=O)c(Cc3ccccc3)coc2c1
132 to 133	CC(=O)NC1CCC(=O)C(=CN(C)C)C1 (stereo not drawn)
195 to 197	O=c1cc2c(nn1-c1ccc(Cl)cc1)-c1cc(CO)sc1CC2
105 to 107	COc1cc2c(cc1O)C(C)(C)CC2=O
83 to 85	CC(NC(=O)OC(C)(C)C)C(=O)NC1CCN(Cc2ccccc2)C1 (stereo not drawn)
135	Cc1cccc(NC(=O)NCC(=O)N(CC(=O)OC(C)(C)C)c2cccc(Cl)c2Cl)c1
204 to 206	N#Cc1c2n(c(=O)n1-c1cc(O)c(Cl)cc1F)CCCC2
95	Cc1cccc(C)c1NC(=O)c1cc(CO)on1
69 to 71	CC(C)c1ccc2nc(Cl)cn2n1
152 to 153	CC1=CC(OC(=O)c2ccc(N)cc2)C(O)C(C)(C)CC1=O (stereo not drawn)
263	NC(=S)C(c1ccc(Cl)cc1)c1c(Cl)cc(-n2ncc(=O)[nH]c2=O)cc1Cl (stereo not drawn)
163	COCc1cc2c(nc(C)n2C)c(O)c1CCC(=O)c1ccccc1C
140 to 142	CCOC(=O)C(=O)Nc1c([N+](=O)[O-])cc(S(=O)(=O)NC(=O)C(=O)OCC)c2c1CCCC2
137	CCOC(=O)NCc1cc(-c2ccc(Cl)cc2)no1
205 to 209	COc1cc(C[C@H]2NC(=O)CN(Cc3ccccc3)C2=O)ccc1C
83 to 84	Cc1cccc2c(C(F)(F)F)c(O)ccc12
135 to 137	CCOC(=O)c1c2ccc(CC(=O)N(OC)C3COC(C)(C)O3)ccc-2c(C(=O)OCC)c1N (stereo not drawn)
176 to 178	CCn1nc(-c2ccccc2)c(C(C)=O)c(Nc2cccc(F)c2)c1=O
230 to 231	O=C(O)[C@@H]1CCCN1C(=O)c1cc2cc3c(cc2c2cc(O)ccc12)OCO3
197 to 200	CC(=O)Oc1c(N2CCCC2)c(=O)n(-c2ccccc2)c2ncccc12
148 to 149	CN(CC#Cc1cc(CN2CCOCC2)cc2c(=O)c(C(=O)NCc3ccc(Cl)cc3)cn(C)c12)CCO
156 to 162	O=C(NCCc1ccc(O)c(O)c1)c1cccnc1
140 to 142	CCNC(=O)c1c(Cl)cccc1[Si](C)(C)C(C)(C)C

melting point [°C]	SMILES
194	CC(=O)NCc1c(C)cc(CO)cc1C
> 250	Nc1nc2ccccc2c2c1ncn2CC1(O)CCC1
218 to 220	COc1ccc(-c2nc(C)c(C(N)=O)s2)cc1OC
107 to 108	O=C1CC(c2ccccc2)Cc2occ(C(F)(F)F)c21 (stereo not drawn)
199 to 200	Cc1c2n(c3ccccc13)C(=O)C(C(O)c1ncc[nH]1)CC2 (stereo not drawn)
373 to 375	Cc1cccc2nc(O)n(C3CCC(=O)NC3=O)c(=O)c12 (stereo not drawn)
112 to 114	CN(CCc1ccc(N)cc1)C1Cc2ccc(N)cc2C1 (stereo not drawn)
65 to 69	CC(C)(O)COc1c(-c2ccc(S(N)(=O)=O)cc2)cnn(-c2ccc(F)c(F)c2)c1=O
68 to 70	COc1ccc(C2(C#Cc3ccnc(N)n3)CCC(=O)CC2)cc1OC1CCCC1
63.5 to 64.5	COc1cc(C(C)(C)C)c2c(c1)C(C)(C)C(=O)O2
88	O=C(O)C1OCc2ccccc2O1 (stereo not drawn)
72 to 75	COCC(=O)OCn1cc(C#N)c(-c2cccc(Cl)c2Cl)c1
132 to 134	O=C1OC(Cl)(C(=O)OCc2ccc([N+](=O)[O-])cc2)c2ccccc21 (stereo not drawn)
101 to 102	C#CC(CC(=O)O)c1ccc(OC)c(OC2CCCC2)c1 (racemic)
189 to 190	CCc1ccc(-c2ccc(C(=O)Nc3ccc4cc(CN5CCCC5)cnc4c3C)cc2)cc1
184 to 186	COC1CC2(C)C(CCC3C4CC(C)=C(C(C)=O)C4(C)CC(=O)C32)CC1O (stereo not drawn)
173 to 174	Nc1cc2cccc(F)c2oc1=O
250 to 253	CC12CCC3c4ccc(C(=O)O)cc4CCC3C1CCC2C(=O)CCC1CCCCC1 (stereo not drawn)
128 to 130	CC(=O)NCc1ccc2c(c1)N(C1CCN(CCCc3ccc(F)cc3)CC1)CC2
101 to 102	CC(C)(C)c1ccc2c(c1)C(=O)CCC2
132 to 134	CN1N(c2ccccc2)C(=O)C(F)(F)C1(C)O (stereo not drawn)
118 to 120	Cc1cc(CO)nc(Nc2ccccc2)n1
122 to 124	Cc1cc(OC2CCCCO2)c(C)cc1OCCCC(C)(C)C(=O)O (stereo not drawn)
> 245	Cn1cc(C2=C(c3cn(C(=O)C(C)(C)C)c4cc([N+](=O)[O-])ccc34)C(=O)NC2=O)c2ccccc21
